organism: Bos taurus; test: In vitro inhibition of IL1-beta (interleukin-1-beta) induced degradation of bovine nasal cartilage in an organ culture assay; assay type: functional

Point of comparison: `O=c1cc2c3cccnc3sn2c2ccccc12`, IC50 22 µM. Against it:
- O=c1cc2c3ccccc3sn2c2ccccc12 — 2.8-fold lower, 8 µM

organism: Bos taurus; test: In vitro inhibition of IL1-beta (interleukin-1-beta) induced degradation of bovine nasal cartilage in an organ culture assay at 30 uM; assay type: functional

Point of comparison: `COc1cccc2c1sn1c3ccccc3c(=O)cc21`, inhibition at 30 µM 30%. Against it:
- COc1cc2c(=O)cc3c4ccccc4sn3c2c(OC)c1OC — higher, 80%
- O=c1cc2c3ccccc3sn2c2ccc(Cl)cc12 — higher, 84%
- COc1cccc2c(=O)cc3c4ccccc4sn3c12 — higher, 74%
